Results from EP0201999A1 (priority 1985, dated 1986).
Marks after values point to notes of the source that are not given here.

Assays:
Format in all cases: in vivo
VENTURIA INAEQUALIS = experiment: Foliar fungal disease test on plants (Example 29), Venturia inaequalis on apples; conditions: 100 ppm a.i. foliar spray plus root drench approx. 40 ppm ai./dry soil, mostly protectant, applied 1-2 days before inoculation
Procedure: (§1) The compounds were tested against a variety of mainly foliar fungal diseases of plants. The techniques employed were as follows.
(§2) For all tests the plants were grown in John Innes Potting Compost (No. 1 or 2) in 4 cm diameter minipots. The test compounds were formulated either by bead milling with aqueous Dispersol T or as a solution in acetone or acetone/ethanol which was diluted to the required concentration immediately before use. The solutions or suspensions (100 ppm ia.) were sprayed on the foliage and applied to the roots of the plant via the soil. The sprays were applied to maximum retention and the root drenches to a final concentration equivalent to approximately 40 ppm ai./dry soil. "TWEEN" 20, to give a final concentration of 0.05%, was added when the sprays were applied to cereals. (a.i. means "active ingredient"). The word "TWEEN" is a Trade Mark.
(§3) Most were protectant tests where the compound was applied to the soil and roots and to the foliage one or two days before the plant was inoculated with the pathogen. The foliar pathogens were applied by spraying as spore suspensions onto the leaves of the test plants.
(§4) After inoculation, the plants were placed in an appropriate environment to allow infection to proceed and then incubated until the disease was ready for assessment. The period between inoculation and assessment varied from four to fourteen days according to the disease and the environment.
(§5) Disease control was recorded using the following grading system : • 4 = no disease • 3 = trace to 5% of disease on untreated plants • 2 = 6-25% of disease on untreated plants • 1 = 26-59% of disease on untreated plants • 0 = 60-100% of disease on untreated plants

[…] [1] = Root drench test against Plasmopara viticola on vines (Example 30); conditions: vines (variety ohanez), 25 ppm, approx. 10 ppm compound/dry soil, inoculated after 2 days, assessed six days later
Procedure: This Example illustrates the activity of the invention compounds against the disease Plasmopara viticola on vines.
For the test on Plasmopara viticola the vine plants (variety ohanez) were grown in John Innes Potting Compost (No. 1 or 2) in 4 cm diameter minipots. The test compounds were formulated either by bead milling with aqueous Dispersol T or as a solution in acetone or acetone/ ethanol which was diluted to a concentration of 25 ppm of the compound immediately before use. The solutions or suspensions were applied as a root drench to a final concentration equivalent to approximately 10 ppm compound/dry soil. After 2 days the plants were inoculated with the pathogen, and then placed in a humidity cabinet to allow infection to proceed, and the assessment carried out six days later.
The disease grading system was as for Example 29.

[…] [2] = Foliar fungal disease test on plants (Example 29), […] on vines; conditions: 100 ppm a.i. foliar spray plus root drench approx. 40 ppm ai./dry soil, mostly protectant, applied 1-2 days before inoculation
Procedure: as §1, §2, §3, §4, §5

P[…] = conditions: 100 ppm a.i. foliar spray plus root drench approx. 40 ppm ai./dry soil, mostly protectant, applied 1-2 days before inoculation
PUCCINIA RECONDITA = experiment: Foliar fungal disease test on plants (Example 29), Puccinia recondita on wheat; conditions: 100 ppm a.i. foliar spray plus root drench approx. 40 ppm ai./dry soil, mostly protectant, applied 1-2 days before inoculation
Procedure: as §1, §2, §3, §4, §5

CERCOSPORA ARACHIDICOLA = experiment: Foliar fungal disease test on plants (Example 29), Cercospora arachidicola on peanuts; conditions: 100 ppm a.i. foliar spray plus root drench approx. 40 ppm ai./dry soil, mostly protectant, applied 1-2 days before inoculation
Procedure: as §1, §2, §3, §4, §5

[…] [3] = Root drench test against Plasmopara viticola on vines (Example 30); conditions: vines (variety ohanez), test concentration 30 ppm (marked *), inoculated after 2 days, assessed six days later
[4] = tested on: Phytophthora infestans lycopersicii; conditions: tomato plants (variety Outdoor Girl); 100 ppm ai.; inoculated after 1 day; 24 hours humidity cabinet, assessed after a further 2 days

Row | SMILES | Disease control VENTURIA INAEQUALIS (APPLES) (VENTURIA INAEQUALIS) | Disease control […] (VINES) ([…] [1]) | Disease control […] (VINES) ([…] [2]) | Disease control P[…] (RICE) (P[…]) | Disease control PUCCINIA RECONDITA (WHEAT) (PUCCINIA RECONDITA) | Disease control CERCOSPORA ARACHIDICOLA (PEANUTS) (CERCOSPORA ARACHIDICOLA) | Disease control […] (VINES) ([…] [3]) | Disease control Phytophthora infestans (tomatoes) [4]
1 | C#CCNC(=O)C(C#N)=NOC [Compound 1, 2-cyano-2-methoxyimino-N-propargylacetamide] | 2 (2 = 6-25% of disease on untreated plants) | 4 | 4 | 3 (3 = trace to 5% of disease on untreated plants) | 4 | 2 (2 = 6-25% of disease on untreated plants) | – | –
2 | CON=C(C#N)C(=O)NCC(I)=CI [Compound 7, 2-cyano-2-methoxyimino-N-2,3-diiodo-allylacetamide] | 0 (0 = 60-100% of disease on untreated plants) | – | 4 | 2 (2 = 6-25% of disease on untreated plants) | 0 (0 = 60-100% of disease on untreated plants) | 0 (0 = 60-100% of disease on untreated plants) | 2* (2 = 6-25% of disease on untreated plants) | –
3 | C#CCN(CC#C)C(=O)C(C#N)=NOC [Compound 9, 2-cyano-2-methoxyimino-N,N-dipropargyl-acetamide] | 0 (0 = 60-100% of disease on untreated plants) | – | 4 | 2 (2 = 6-25% of disease on untreated plants) | 2 (2 = 6-25% of disease on untreated plants) | 0 (0 = 60-100% of disease on untreated plants) | 3* (3 = trace to 5% of disease on untreated plants) | –
4 | C#CCN(CC=C)C(=O)C(C#N)=NOC [Compound 10, 2-cyano-2-methoxyimino-N-(propargyl)-N-allylacetamide] | 0 (0 = 60-100% of disease on untreated plants) | 2 (2 = 6-25% of disease on untreated plants) | 3 (3 = trace to 5% of disease on untreated plants) | 0 (0 = 60-100% of disease on untreated plants) | 0 (0 = 60-100% of disease on untreated plants) | 2 (2 = 6-25% of disease on untreated plants) | – | –
5 | CON=C(C#N)C(=O)NCC#N [Compound 20, 2-cyano-2-methoxyimino-N-(cyanomethyl)-acetamide] | 3 (3 = trace to 5% of disease on untreated plants) | 4 | 4 | 1 (1 = 26-59% of disease on untreated plants) | 3 (3 = trace to 5% of disease on untreated plants) | 2 (2 = 6-25% of disease on untreated plants) | – | 2 (2 = 6-25% of disease on untreated plants)
6 | CCON=C(C#N)C(=O)NCC#N [Compound 22, 2-cyano-2-ethoxyimino-N-(cyanomethyl)-acetamide] | 4 | 4 | 4 | 3 (3 = trace to 5% of disease on untreated plants) | 3 (3 = trace to 5% of disease on untreated plants) | 3 (3 = trace to 5% of disease on untreated plants) | – | –
7 | CON=C(C#N)C(=O)NCC(=O)OC [Compound 24, methoxycarbonylmethyl-(2-cyano-2-methoxyimino)-acetamide] | 0 (0 = 60-100% of disease on untreated plants) | 0 (0 = 60-100% of disease on untreated plants) | 4 | 0 (0 = 60-100% of disease on untreated plants) | 1 (1 = 26-59% of disease on untreated plants) | 2 (2 = 6-25% of disease on untreated plants) | – | –
8 | CON=C(C#N)C(=O)Nc1nccs1 [Compound 25, 2-cyano-2-methoxyimino-N-2-thiazolylacetamide] | 2 (2 = 6-25% of disease on untreated plants) | 0 (0 = 60-100% of disease on untreated plants) | 4 | 0 (0 = 60-100% of disease on untreated plants) | 3 (3 = trace to 5% of disease on untreated plants) | 0 (0 = 60-100% of disease on untreated plants) | – | 2 (2 = 6-25% of disease on untreated plants)
9 | N#CCNC(=O)C(C#N)=NO [Compound 31, 2-cyano-2-oximino-N-(cyanomethyl)-acetamide] | 0 (0 = 60-100% of disease on untreated plants) | – | 0 (0 = 60-100% of disease on untreated plants) | 2 (2 = 6-25% of disease on untreated plants) | 0 (0 = 60-100% of disease on untreated plants) | 0 (0 = 60-100% of disease on untreated plants) | – | –
10 | CON=C(C#N)C(=O)NC(C)C#N (stereo not drawn) [Compound 34, 2-cyano-2-methoxyimino-N-(α-cyanoethyl)-acetamide] | 0 (0 = 60-100% of disease on untreated plants) | 4 | 4 | 0 (0 = 60-100% of disease on untreated plants) | 4 | 0 (0 = 60-100% of disease on untreated plants) | – | 3 (3 = trace to 5% of disease on untreated plants)
11 | CON=C(C#N)C(=O)NCC(N)=S [Compound 54, 2-cyano-2-methoxyimino-N-(thio-carbamoylmethyl)-acetamide] | 0 (0 = 60-100% of disease on untreated plants) | 4 | 4 | 0 (0 = 60-100% of disease on untreated plants) | 3 (3 = trace to 5% of disease on untreated plants) | 3 (3 = trace to 5% of disease on untreated plants) | – | 3 (3 = trace to 5% of disease on untreated plants)
12 | CON=C(C#N)C(=O)NC(C#N)c1ccco1 (stereo not drawn) [Compound 63, 2-cyano-2-methoxyimino-N-[(2-furyl)-α-cyano-methyl]-acetamide] | 0 (0 = 60-100% of disease on untreated plants) | 4 | 4 | 0 (0 = 60-100% of disease on untreated plants) | 2 (2 = 6-25% of disease on untreated plants) | 0 (0 = 60-100% of disease on untreated plants) | – | –
